Experimental findings from patent US20080009416A1, “THIAZOLIUM COMPOUNDS AND USES THEREOF” (Mycosol, Inc., priority 2004, published 2008) are described below.

One experiment concerns male Lewis rats. As to conditions: intrapleural with carrageenan, 4 hours.
For another experiment, the system named is Pyricularia oryzae. In kind it is cell-based. As to conditions: Pyricularia oryzae (Rice); 18° C., 7 days; growth reduced by at least 90% vs control, OD 405 nm.
For another experiment, the system named is Phytophthora infestans. In kind it is cell-based. The conditions noted are these: Phytophthora infestans (Tomato); 18° C., 7 days; growth reduced by at least 90% vs control, OD 405 nm.
For the next experiment, the system named is Fusarium culmorum. Kind of experiment: Anti-Fungal Activity in Plant Relevant Molds In Vitro Microtitre Test. In kind it is cell-based. As to conditions: Fusarium culmorum (Wheat Head); 18° C., 7 days; growth reduced by at least 90% vs control, OD 405 nm. On the procedure:
(§1) Compounds III, IV and V were prepared and were subjected to Anti-Fungal Activity in Plant Relevant Molds In Vitro Microtitre Tests.
(§2) A stock solution of each compound was prepared in DMSO at a concentration of 10,000 ppm a.i. Further dilutions were prepared with water. The test was conducted at the following concentrations: 125, 31, 8, […], 0.5 and 0.125 ppm a.i. Spore suspensions of the fungi were prepared. The test was conducted in microtiter plates and for each fungus and each concentration, 3 wells were prepared. Incubation of the inoculated plates was carried out at 18° C. for 7 days. After this time, the optical density of the mycelium developed in each well was measured at 405 nm.
(§3) The data produced allowed an assessment of the IC 90 value (the concentration at which the fungal growth was reduced by at least 90% compared to the control).

Another experiment concerns Alternaria solani. The description is as above. The experiment is classed as cell-based. As to conditions: Alternaria solani (Potato); 18° C., 7 days; growth reduced by at least 90% vs control, OD 405 nm. As for the experimental part:
as §1, §2, §3

The subject of a further experiment is Rhizoctonia solani. The experiment is described as above. In kind it is cell-based. The conditions noted are these: Rhizoctonia solani (Rice Sheath); 18° C., 7 days; growth reduced by at least 90% vs control, OD 405 nm. On the procedure:
as §1, §2, §3

The next experiment deals with Pyrenophora teres. The description is as above. As to conditions: Pyrenophora teres (Barley); 18° C., 7 days; growth reduced by at least 90% vs control, OD 405 nm. The experiment is classed as cell-based. On the procedure: as §1, §2, §3
The subject of experiment [1] is Colletotrichum lagenarium. The experiment is described as above. The conditions noted are these: Colletotrichum lagenarium (Mellons); 18° C., 7 days; growth reduced by at least 90% vs control, OD 405 nm. In kind it is cell-based. As for the experimental part: as §1, §2, §3
The test system of a further experiment is Septonia tritici. The description is as above. The conditions noted are these: Septonia tritici (Wheat Leaf); 18° C., 7 days; growth reduced by at least 90% vs control, OD 405 nm. In kind it is cell-based. As for the experimental part:
as §1, §2, §3

In another experiment the test system is Cochliobolus mijabeanus. The experiment is described as above. In kind it is cell-based. As to conditions: Cochliobolus mijabeanus (Corn); 18° C., 7 days; growth reduced by at least 90% vs control, OD 405 nm. As for the experimental part: as §1, §2, §3
The test system of the next experiment is Botrytis cinerea. Described as above. As to conditions: Botrytis cinerea (Vegetable); 18° C., 7 days; growth reduced by at least 90% vs control, OD 405 nm. The experiment is classed as cell-based. As for the experimental part: as §1, §2, §3

Description for male Lewis rats: Acute Anti-Inflammatory Activity in the 4HR Carrageenan Pleurisy Assay in Rats
The Acute Local Carrageenan Pleuritis Assay in Rats is an in vivo model to determine local acute anti-inflammatory activity of compounds based on inhibition of edema formation and neutrophil mobilization into the pleural cavity. In this assay, male Lewis rats of approximately 200 gms were utilized. A carrageenan solution (400 μg/ml) was prepared in water. The experimental compounds were mixed into the carrageenan solution. The carrageenan +/− compounds was injected intrapleurally 0.25 cc/rat. The rats were sacrificed four hours later. The pleural cavity was opened and measured and the exudate extracted. The pleural cavity was washed with 5 cc EDTA solution to capture pleural cells. The total WBCs in the wash were counted and recording. Next the compound inhibition of exudate volume and inflammatory cell influx wash determined. Every experiment included a positive (prednisolone) and negative control group.

For the compound `CC(C)Cc1ccc(-c2csc(C=Cc3ccc(N4CCCC4)cc3)[n+]2C)cc1.[I-]` [4-(4-isobutylphenyl)-3-methyl-2-[2-(4-pyrrolidin-1-yl-phenyl)vinyl]-thiazolium iodide], in the experiment on male Lewis rats, the “Acute Anti-inflammatory Activity in Rats ED50” value stood at 0.0004 mg/rat.

On to `Cc1cc(-c2csc(/C=C/c3ccc(N(C)C)cc3)[n+]2C)c(C)c(C)c1C.[I-]` [Formula V, E-2-(N,N′-dimethylaminostyryl)-3-methyl-4-(2,3,4,5-tetramethylphenyl)thiazolium iodide], for which the IC90 in the experiment with Pyricularia oryzae is listed as 8 ppm; in the experiment on Phytophthora infestans it was 2 ppm; in the experiment with Fusarium culmorum it was 31 ppm; with Alternaria solani, 8 ppm; in the experiment with Rhizoctonia solani, 8 ppm; in the experiment with Pyrenophora teres, 8 ppm. Also, the IC90 in experiment [1] is on record as 8 ppm; in the experiment with Septonia tritici, 2 ppm; with Cochliobolus mijabeanus it was 8 ppm; with Botrytis cinerea it was 2 ppm.

As for `Cc1scc(-c2ccc(C3CCCCC3)cc2)[n+]1C.[I-]` [2,3-dimethyl-4(p-cyclohexylphenyl) thiazolium iodide], the “Acute Anti-inflammatory Activity in Rats ED50” value in the experiment on male Lewis rats was found to be 0.02 mg/rat.

Consider `CC(C)c1ccc(C(C)C)c(-c2csc(/C=C/c3ccc(N(C)C)cc3)[n+]2C)c1.[I-]` [Formula IV, E-2-(N,N′-dimethylaminostyryl)-3-methyl-4-(2,5-diisopropylphenyl)thiazolium iodide], for which the IC90 in the experiment on Pyricularia oryzae was 8 ppm; in the experiment with Phytophthora infestans, 8 ppm; with Fusarium culmorum it was 125 ppm; in the experiment on Alternaria solani, 8 ppm; with Rhizoctonia solani, 8 ppm; with Pyrenophora teres it was 8 ppm. The IC90 in experiment [1] was 8 ppm; with Septonia tritici, 2 ppm; in the experiment with Cochliobolus mijabeanus it was 8 ppm; with Botrytis cinerea, 2 ppm. Besides, in the experiment with male Lewis rats, the “Acute Anti-inflammatory Activity in Rats ED50” value was determined as 0.0002 mg/rat.

For `CCN(CC)c1ccc(C=Cc2scc(-c3ccc(CC(C)C)cc3)[n+]2C)cc1.[I-]` [2-[2-(4-diethylamino-phenyl)vinyl]-4-(4-isobutyl-phenyl)-3-methyl-thiazolium iodide], in the experiment on male Lewis rats, the “Acute Anti-inflammatory Activity in Rats ED50” value worked out at 0.0003 mg/rat.

As to `CC[n+]1c(-c2ccc(-c3ccccc3)cc2)csc1C=Cc1ccc(N2CCCC2)cc1.[I-]` [4-(4-biphenyl)-3-ethyl-2-[(4-pyrrolidino)styryl]thiazolium iodide], the “Acute Anti-inflammatory Activity in Rats ED50” value in the experiment with male Lewis rats turned out to be 0.001 mg/rat.

In the case of `CCOc1ccc(-c2csc(C=Cc3ccc(N(CC)CC)cc3)[n+]2C)cc1.[I-]` [2-(4′-diethylaminostyryl)-4-(4″-ethoxyphenyl)-3-methyl-thiazolium iodide], the “Acute Anti-inflammatory Activity in Rats ED50” value with male Lewis rats was found to be 0.001 mg/rat.

Take `CCN(CC)c1ccc(/C=C/c2scc(-c3ccc(OC)cc3)[n+]2C)cc1.[I-]` [Formula III]: the IC90 with Pyricularia oryzae came to 8 ppm; in the experiment on Phytophthora infestans, 2 ppm; in the experiment on Fusarium culmorum, 31 ppm; in the experiment with Alternaria solani, 31 ppm; in the experiment on Rhizoctonia solani, 8 ppm; with Pyrenophora teres, 8 ppm. For the same compound, the IC90 in [1] is 8 ppm; with Septonia tritici it was 2 ppm; in the experiment on Cochliobolus mijabeanus it was 2 ppm; in the experiment with Botrytis cinerea, 2 ppm.
